Results from patent US20200069691A1, “HETEROCYCLIC COMPOUNDS AS HIV PROTEASE INHIBITORS” (Merck Sharp & Dohme Corp., priority 2016, published 2020).

target: T1, wild-type HIV-1 protease (Human immunodeficiency virus type 1 group M subtype B, UniProt P04585); test: Assay for Inhibition of Microbial Expressed HIV Protease (peptide substrate cleavage, LC-MS/MS readout); format: biochemical; conditions: E. coli expressed wild-type HIV-1 protease, mean of at least two independent experiments, read-out: HIV Pr Enzyme HIV1 PR IC50
T1 construct: Escherichia coli expressed wild-type HIV-1 protease protein
How it was run: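 Cleavage of Val-Ser-Gln-Asn-(β-naphthyl)Ala-Pro-Ile-Val (400 μM) by recombinant HIV-1 protease ([…]) ran 1 h at 30 °C after a 30 min room-temperature inhibitor preincubation in 50 mM sodium acetate pH 5.5. Product peak areas by LC-MS/MS gave inhibition; values average at least two independent runs.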

Compound | IC50 [nM]
N=C1NC(c2ccccc2)(c2ccccc2)C(=O)N1Cc1cccc(C(=O)N2CCn3c(nnc3C(F)(F)F)C2)c1 [Compound 329, 2-imino-5,5-diphenyl-3-(3-{[3-(trifluoromethyl)-5,6-dihydro[1,2,4]triazolo[4,3-a]pyrazin-7(8H)-yl]carbonyl}benzyl) imidazolidin-4-one] | 66.9
COC(=O)N1CCN(C(=O)c2cccc(CN3C(=N)NC(c4ccccc4)(c4ccccc4)C3=O)c2)CC1 [Compound 330, methyl 4-({3-[(2-imino-5-oxo-4.4-diphenylimidazolidin-1-yl)methyl]phenyl}carbonyl) piperazine-1-carboxylate] | 67
C[C@@H](c1cccc(C(=O)N2Cc3ccccc3C2)c1)N1C(=N)NC(c2ccccc2)(c2ccccc2)C1=O [Compound 331, 3-{(1S)-1-[3-(1,3-dihydro-2H-isoindol-2-ylcarbonyl)phenyl]ethyl}-2-imino-5,5-diphenylimidazolidin-4-one] | 67.6
N=C1NC(c2ccc(F)cc2)(c2ccc(F)cc2)C(=O)N1Cc1cccc(C(=O)N2CCC(n3c(=O)[nH]c4ncccc43)CC2)c1 [Compound 332, 1-{1-[(3-{[4,4-bis(4-fluorophenyl)-2-imino-5-oxoimidazolidin-1-yl]methyl}phenyl)carbonyl]piperidin-4-yl}-1,3-dihydro-2H-imidazo[4,5-b]pyridin-2-one] | 68
N=C1NC(c2ccccc2)(c2ccccc2)C(=O)N1Cc1cccc(C(=O)N2CCC(Oc3ccccc3)CC2)c1 [Compound 333, 2-imino-3-{3-[(4-phenoxypiperidin-1-yl)carbonyl]benzyl}-5,5-diphenylimidazolidin-4-one] | 69.6
N=C1NC(c2ccccc2)(c2ccccc2)C(=O)N1Cc1cccc(C(=O)N2CCc3ccc(C(F)(F)F)cc3C2)c1 [Compound 334, 2-imino-5,5-diphenyl-3-(3-{[7-(trifluoromethyl)-3,4-dihydroisoquinolin-2(1H)-yl]carbonyl}benzyl) imidazolidin-4-one] | 70
CC(=O)N1CCN(C(=O)c2cccc(CN3C(=N)NC(c4ccc(F)cc4)(c4ccc(F)cc4)C3=O)c2)CC1 [Compound 335, 3-{3-[(4-acetylpiperazin-1-yl)carbonyl]benzyl}-5,5-bis(4-fluorophenyl)-2-iminoimidazolidin-4-one] | 70.5
N=C1NC(c2ccccc2)(c2ccccc2)C(=O)N1Cc1cccc(C(=O)N2CCc3cc(C(F)(F)F)ccc3C2)c1 [Compound 336, 2-imino-5,5-diphenyl-3-(3-{[6-(trifluoromethyl)-3,4-dihydroisoquinolin-2(1H)-yl]carbonyl}benzyl) imidazolidin-4-one] | 71
N=C1NC(c2ccccc2)(c2ccccc2)C(=O)N1Cc1cccc(C(=O)N2CCn3c(Cc4ccccc4)cnc3C2)c1 [Compound 337, 3-{3-[(3-benzyl-5,6-dihydroimidazo [1,2-a]pyrazin-7(8H)-yl)carbonyl]benzyl}-2-imino-5,5-diphenylimidazolidin-4-one] | 72
N=C1NC(c2ccc(F)cc2)(c2ccc(F)cc2)C(=O)N1Cc1cccc(C(=O)N2CCC(n3c(=O)[nH]c4ccccc43)CC2)c1 [Compound 338, 1-{1-[(3-{[4,4-bis(4-fluorophenyl)-2-imino-5-oxoimidazolidin-1-yl]methyl}phenyl)carbonyl]piperidin-4-yl}-1,3-dihydro-2H-benzimidazol-2-one] | 73.5
N=C1NC(c2ccccc2)(c2ccccc2)C(=O)N1Cc1cccc(C(=O)N2CCn3ccnc3C2)c1 [Compound 339, 3-[3-(5,6-dihydroimidazo[1,2-a]pyrazin-7(8H)-ylcarbonyl)benzyl]-2-imino-5,5-diphenylimidazolidin-4-one] | 75.8
COc1nnc2n1CCN(C(=O)c1cccc(CN3C(=N)NC(c4ccccc4)(c4ccccc4)C3=O)c1)C2 [Compound 340, 2-imino-3-{3-[(3-methoxy-5,6-dihydro[1,2,4]triazolo[4,3-a]pyrazin-7(8H)-yl)carbonyl]benzyl}-5,5-diphenylimidazolidin-4-one] | 76.4
N=C1NC(c2ccccc2)(c2ccccc2)C(=O)N1Cc1cc(F)cc(C(=O)N2CCn3c(nnc3C(F)(F)F)C2)c1 [Compound 341] | 77.5
CC(C)CC1(c2ccccc2)NC(=N)N(Cc2cccc(C(=O)N3CCN(c4ccccc4)CC3)c2)C1=O (stereo not shown) [Compound 342, 2-imino-5-(2-methylpropyl)-5-phenyl-3-{3-[(4-phenylpiperazin-1-yl)carbonyl]benzyl} imidazolidin-4-one] | 78.8
N=C1NC(c2ccccc2)(c2ccccc2)C(=O)N1Cc1cccc(C(=O)N2CCn3nc(C(F)(F)F)nc3C2)c1 [Compound 343, 2-imino-5,5-diphenyl-3-(3-{[2-(trifluoromethyl)-5,6-dihydro-[1,2,4]triazolo[1,5-a]pyrazin-7(8H)-yl]carbonyl}benzyl) imidazolidin-4-one] | 79.8
CCOC(=O)NC1CCN(C(=O)c2cc(F)cc(CN3C(=N)NC(c4ccccc4)(c4ccccc4)C3=O)c2)CC1 [Compound 344, ethyl [1-({3-fluoro-5-[(2-imino-5-oxo-4,4-diphenylimidazolidin-1-yl)methyl]phenyl}carbonyl)piperidin-4-yl]carbamate] | 81.4
CCCC1(c2ccccc2)NC(=N)N(Cc2cccc(C(=O)N3Cc4cnc(C)nc4C3)c2)C1=O (stereo not shown) [Compound 345, 2-imino-3-{3-[(2-methyl-5,7-dihydro-6H-pyrrolo[3,4-d]pyrimidin-6-yl)carbonyl]benzyl}-5-phenyl-5-propylimidazolidin-4-one] | 81.9
CC(C)CC1(c2ccccc2)NC(=N)N(Cc2cccc(C(=O)N3CCC(n4c(=O)[nH]c5nc(F)ccc54)CC3)c2)C1=O (stereo not shown) [Compound 346, 5-fluoro-1-{1-[(3-{[2-imino-4-(2-methylpropyl)-5-oxo-4-phenylimidazolidin-1-yl]methyl}phenyl)-carbonyl]piperidin-4-yl}-1,3-dihydro-2H-imidazo[4,5-b]pyridin-2-one] | 82.5
COC(=O)N1CCN(C(=O)c2cccc(CN3C(=N)NC(c4ccc(F)cc4)(c4cccc(C(N)=O)c4)C3=O)c2)CC1 (stereo not shown) [Compound 347, methyl 4-[(3-{[4-(3-carbamoylphenyl)-4-(4-fluorophenyl)-2-imino-5-oxoimidazolidin-1-yl]methyl}phenyl)-carbonyl]piperazine-1-carboxylate] | 83.3
COC(=O)N1CCN(C(=O)c2cccc(CN3C(=N)NC(CCC(C)C)(c4cccc(F)c4)C3=O)c2)CC1 (stereo not shown) [Compound 348, methyl 4-[(3-{[4-(3-fluorophenyl)-2-imino-4-(3-methylbutyl)-5-oxoimidazolidin-1-yl]methyl}phenyl)-carbonyl]piperazine-1-carboxylate] | 84.1
N=C1NC(c2ccccc2)(c2ccccc2)C(=O)N1Cc1cccc(C(=O)N2CCn3cc(C(F)(F)F)nc3C2)c1 [Compound 349, 2-imino-5,5-diphenyl-3-(3-{[2-(trifluoromethyl)-5,6-dihydroimidazo-[1,2-a]pyrazin-7(8H)-yl]carbonyl}-benzyl)imidazolidin-4-one] | 84.2
COC(=O)N1CCN(C(=O)c2cccc(CN3C(=N)NC(c4ccc(F)cc4)(c4cccc(C#N)c4)C3=O)c2)CC1 (stereo not shown) [Compound 350, methyl 4-[(3-{[4-(3-cyanophenyl)-4-(4-fluorophenyl)-2-imino-5-oxoimidazolidin-1-yl]methyl}phenyl)carbony1] piperazine-1-carboxylate] | 85.3
